Converted amounts (≈) assume the structure as drawn.
Tests used:
Assay type in all cases: functional
Alternaria mali = test: Antifungal activity against Alternaria mali on potato sucrose agar medium at 28 or 20 degC for 2 or 3 days
Monilinia fructicola = test: Antifungal activity against Monilinia fructicola on potato sucrose agar medium at 28 or 20 degC for 2 or 3 days
[1] = test system: Fusarium oxysporum f. sp. cucumerinum; test: Antifungal activity against Fusarium oxysporum f. sp. cucumerinum on potato sucrose agar medium at 28 or 20 degC for 2 or 3 days
Triticum aestivum = test: Inhibition of Triticum aestivum (wheat) Nourin 64 growth assessed as first leaf sheath length of seedlings measured as growth rate at 125 ug/ml for 24 hr relative to control; parameters: scale not given: the % may be the effect or the level left
Bipolaris oryzae = test: Antifungal activity against Bipolaris oryzae on potato sucrose agar medium at 28 or 20 degC for 2 or 3 days
Rhizoctonia solani = test: Antifungal activity against Rhizoctonia solani on potato sucrose agar medium at 28 or 20 degC for 2 or 3 days
[2] = test system: Colletotrichum gloeosporioides; test: Antifungal activity against Glomerella cingulata on potato sucrose agar medium at 28 or 20 degC for 2 or 3 days
Botrytis cinerea = test: Antifungal activity against Botryotinia fuckeliana on potato sucrose agar medium at 28 or 20 degC for 2 or 3 days
Fusarium fujikuroi = test: Antifungal activity against Fusarium fujikuroi on potato sucrose agar medium at 28 or 20 degC for 2 or 3 days
Pyricularia oryzae = test: Antifungal activity against Magnaporthe oryzae on potato sucrose agar medium at 28 or 20 degC for 2 or 3 days
Colletotrichum lagenaria = test: Antifungal activity against Colletotrichum lagenaria on potato sucrose agar medium at 28 or 20 degC for 2 or 3 days
Cucumis sativus = test: Inhibition of Cucumis sativus (cucumber) growth assessed as stem length of first leaf of seedlings measured as growth rate at 125 ug/ml for 24 hr relative to control; parameters: scale not given: the % may be the effect or the level left
Cercospora beticola = test: Antifungal activity against Cercospora beticola on potato sucrose agar medium at 28 or 20 degC for 2 or 3 days
Sclerotinia sclerotiorum = test: Antifungal activity against Sclerotinia sclerotiorum on potato sucrose agar medium at 28 or 20 degC for 2 or 3 days

| Structure (SMILES) | MIC (Alternaria mali) | MIC (Monilinia fructicola) | MIC [1] | Activity (Triticum aestivum) | MIC (Bipolaris oryzae) | MIC (Rhizoctonia solani) | MIC [2] | MIC (Botrytis cinerea) | MIC (Fusarium fujikuroi) | MIC (Pyricularia oryzae) | MIC (Colletotrichum lagenaria) | Activity (Cucumis sativus) | MIC (Cercospora beticola) | MIC (Sclerotinia sclerotiorum) |
| --- | --- | --- | --- | --- | --- | --- | --- | --- | --- | --- | --- | --- | --- | --- |
| CC(C)C[C@@H]1CC[C@H](Cc2ccc(Cl)cc2)[C@@]1(O)Cn1cncn1 | > 100 µg/mL | 3.1 µg/mL (≈ 8.91 µM) | > 100 µg/mL | 112% | 50 µg/mL (≈ 144 µM) | > 100 µg/mL | 3.1 µg/mL (≈ 8.91 µM) | 1.6 µg/mL (≈ 4.6 µM) | 3.1 µg/mL (≈ 8.91 µM) | 6.3 µg/mL (≈ 18.1 µM) | 100 µg/mL (≈ 287 µM) | 109% | > 100 µg/mL | 3.1 µg/mL (≈ 8.91 µM) |
| C[C@H]1CC[C@@H](Cc2ccc(Cl)cc2)[C@]1(O)Cn1cncn1 | > 100 µg/mL | 13 µg/mL (≈ 42.5 µM) | > 100 µg/mL | 92% | > 100 µg/mL | > 100 µg/mL | > 100 µg/mL | 100 µg/mL (≈ 327 µM) | > 100 µg/mL | 50 µg/mL (≈ 164 µM) | > 100 µg/mL | 97% | > 100 µg/mL | > 100 µg/mL |
| CCC[C@H]1CC[C@@H](Cc2ccc(Cl)cc2)[C@]1(O)Cn1cncn1 | > 100 µg/mL | 13 µg/mL (≈ 38.9 µM) | > 100 µg/mL | 97% | 100 µg/mL (≈ 300 µM) | 100 µg/mL (≈ 300 µM) | > 100 µg/mL | 50 µg/mL (≈ 150 µM) | > 100 µg/mL | 50 µg/mL (≈ 150 µM) | > 100 µg/mL | 104% | > 100 µg/mL | > 100 µg/mL |
| CC(C)[C@H]1CC[C@H](Cc2ccc(Cl)cc2)[C@@]1(O)Cn1cncn1 | 3.1 µg/mL (≈ 9.29 µM) | < 0.2 µg/mL | 0.4 µg/mL (≈ 1.2 µM) | 96% | 13 µg/mL (≈ 38.9 µM) | 100 µg/mL (≈ 300 µM) | 0.4 µg/mL (≈ 1.2 µM) | 0.4 µg/mL (≈ 1.2 µM) | 0.2 µg/mL (≈ 0.599 µM) | 1.6 µg/mL (≈ 4.79 µM) | < 0.2 µg/mL | 113% | 13 µg/mL (≈ 38.9 µM) | 0.8 µg/mL (≈ 2.4 µM) |
| CC(C)[C@@H]1CC[C@@H](Cc2ccc(Cl)cc2)[C@]1(O)Cn1cncn1 | > 100 µg/mL | < 0.2 µg/mL | > 100 µg/mL | 92% | 50 µg/mL (≈ 150 µM) | > 100 µg/mL | 25 µg/mL (≈ 74.9 µM) | 25 µg/mL (≈ 74.9 µM) | > 100 µg/mL | 13 µg/mL (≈ 38.9 µM) | 50 µg/mL (≈ 150 µM) | 104% | > 100 µg/mL | > 100 µg/mL |
| O[C@]1(Cn2cncn2)CCC[C@@H]1Cc1ccc(Cl)cc1 | > 100 µg/mL | < 0.2 µg/mL | > 100 µg/mL | 41% | 25 µg/mL (≈ 85.7 µM) | > 100 µg/mL | 25 µg/mL (≈ 85.7 µM) | 3.1 µg/mL (≈ 10.6 µM) | 13 µg/mL (≈ 44.6 µM) | 6.3 µg/mL (≈ 21.6 µM) | > 100 µg/mL | 80% | > 100 µg/mL | 13 µg/mL (≈ 44.6 µM) |
| CC[C@H]1CC[C@@H](Cc2ccc(Cl)cc2)[C@]1(O)Cn1cncn1 | > 100 µg/mL | 1.6 µg/mL (≈ 5 µM) | > 100 µg/mL | 77% | 50 µg/mL (≈ 156 µM) | 100 µg/mL (≈ 313 µM) | 25 µg/mL (≈ 78.2 µM) | 25 µg/mL (≈ 78.2 µM) | > 100 µg/mL | 25 µg/mL (≈ 78.2 µM) | 50 µg/mL (≈ 156 µM) | 98% | > 100 µg/mL | 100 µg/mL (≈ 313 µM) |
| CCCC[C@@H]1CC[C@H](Cc2ccc(Cl)cc2)[C@@]1(O)Cn1cncn1 | > 100 µg/mL | 6.3 µg/mL (≈ 18.1 µM) | 50 µg/mL (≈ 144 µM) | 98% | 25 µg/mL (≈ 71.9 µM) | 100 µg/mL (≈ 287 µM) | 6.3 µg/mL (≈ 18.1 µM) | 3.1 µg/mL (≈ 8.91 µM) | 3.1 µg/mL (≈ 8.91 µM) | 6.3 µg/mL (≈ 18.1 µM) | > 100 µg/mL | 121% | > 100 µg/mL | 3.1 µg/mL (≈ 8.91 µM) |
| O[C@@]1(Cn2cncn2)CCC[C@H]1Cc1ccc(Cl)cc1 | > 100 µg/mL | 13 µg/mL (≈ 44.6 µM) | > 100 µg/mL | 94% | > 100 µg/mL | > 100 µg/mL | > 100 µg/mL | > 100 µg/mL | > 100 µg/mL | 100 µg/mL (≈ 343 µM) | > 100 µg/mL | 90% | > 100 µg/mL | > 100 µg/mL |
| CCC[C@@H]1CC[C@H](Cc2ccc(Cl)cc2)[C@@]1(O)Cn1cncn1 | > 100 µg/mL | 0.4 µg/mL (≈ 1.2 µM) | 6.3 µg/mL (≈ 18.9 µM) | 102% | 25 µg/mL (≈ 74.9 µM) | 100 µg/mL (≈ 300 µM) | 3.1 µg/mL (≈ 9.29 µM) | 1.6 µg/mL (≈ 4.79 µM) | 1.6 µg/mL (≈ 4.79 µM) | 6.3 µg/mL (≈ 18.9 µM) | 50 µg/mL (≈ 150 µM) | 110% | 100 µg/mL (≈ 300 µM) | 3.1 µg/mL (≈ 9.29 µM) |
| CCCC[C@H]1CC[C@@H](Cc2ccc(Cl)cc2)[C@]1(O)Cn1cncn1 | > 100 µg/mL | 50 µg/mL (≈ 144 µM) | > 100 µg/mL | 112% | > 100 µg/mL | 100 µg/mL (≈ 287 µM) | > 100 µg/mL | > 100 µg/mL | > 100 µg/mL | 25 µg/mL (≈ 71.9 µM) | > 100 µg/mL | 117% | > 100 µg/mL | > 100 µg/mL |
| CC(C)[C@@H]1CC[C@H](Cc2ccc(Cl)cc2)[C@@]1(O)Cn1cncn1 | 6.3 µg/mL (≈ 18.9 µM) | < 0.2 µg/mL | 3.1 µg/mL (≈ 9.29 µM) | 105% | 13 µg/mL (≈ 38.9 µM) | 13 µg/mL (≈ 38.9 µM) | 1.6 µg/mL (≈ 4.79 µM) | 0.2 µg/mL (≈ 0.599 µM) | 0.2 µg/mL (≈ 0.599 µM) | 3.1 µg/mL (≈ 9.29 µM) | 0.8 µg/mL (≈ 2.4 µM) | 118% | 25 µg/mL (≈ 74.9 µM) | < 0.2 µg/mL |
| CC[C@@H]1CC[C@@H](Cc2ccc(Cl)cc2)[C@]1(O)Cn1cncn1 | 100 µg/mL (≈ 313 µM) | 0.4 µg/mL (≈ 1.25 µM) | > 100 µg/mL | 69% | 25 µg/mL (≈ 78.2 µM) | 100 µg/mL (≈ 313 µM) | 13 µg/mL (≈ 40.6 µM) | 13 µg/mL (≈ 40.6 µM) | 25 µg/mL (≈ 78.2 µM) | 13 µg/mL (≈ 40.6 µM) | 100 µg/mL (≈ 313 µM) | 110% | 50 µg/mL (≈ 156 µM) | 25 µg/mL (≈ 78.2 µM) |
| CC(C)[C@H]1CC[C@@H](Cc2ccc(Cl)cc2)[C@]1(O)Cn1cncn1 | > 100 µg/mL | < 0.2 µg/mL | > 100 µg/mL | 109% | 50 µg/mL (≈ 150 µM) | 100 µg/mL (≈ 300 µM) | 25 µg/mL (≈ 74.9 µM) | 25 µg/mL (≈ 74.9 µM) | > 100 µg/mL | 100 µg/mL (≈ 300 µM) | > 100 µg/mL | 117% | > 100 µg/mL | 50 µg/mL (≈ 150 µM) |
| CC[C@H]1CC[C@H](Cc2ccc(Cl)cc2)[C@@]1(O)Cn1cncn1 | 1.6 µg/mL (≈ 5 µM) | < 0.2 µg/mL | 1.6 µg/mL (≈ 5 µM) | 100% | 6.3 µg/mL (≈ 19.7 µM) | 50 µg/mL (≈ 156 µM) | < 0.2 µg/mL | < 0.2 µg/mL | < 0.2 µg/mL | 1.6 µg/mL (≈ 5 µM) | 3.1 µg/mL (≈ 9.69 µM) | 123% | 1.6 µg/mL (≈ 5 µM) | < 0.2 µg/mL |
